Three compounds from PMC10661964 (Current Drug Metabolism, 2023) can be followed below.

Structures are written as SMILES. Like-named read-outs stand apart in the source and are kept apart here.

Holding throughout (experiment): CYP inhibition with probe substrate
Common to all, as to format: in vitro ADME

The target of data set [1] is T1, CYP 2B6 (Homo sapiens, UniProt P20813).
T1 sequence (P20813 1-491): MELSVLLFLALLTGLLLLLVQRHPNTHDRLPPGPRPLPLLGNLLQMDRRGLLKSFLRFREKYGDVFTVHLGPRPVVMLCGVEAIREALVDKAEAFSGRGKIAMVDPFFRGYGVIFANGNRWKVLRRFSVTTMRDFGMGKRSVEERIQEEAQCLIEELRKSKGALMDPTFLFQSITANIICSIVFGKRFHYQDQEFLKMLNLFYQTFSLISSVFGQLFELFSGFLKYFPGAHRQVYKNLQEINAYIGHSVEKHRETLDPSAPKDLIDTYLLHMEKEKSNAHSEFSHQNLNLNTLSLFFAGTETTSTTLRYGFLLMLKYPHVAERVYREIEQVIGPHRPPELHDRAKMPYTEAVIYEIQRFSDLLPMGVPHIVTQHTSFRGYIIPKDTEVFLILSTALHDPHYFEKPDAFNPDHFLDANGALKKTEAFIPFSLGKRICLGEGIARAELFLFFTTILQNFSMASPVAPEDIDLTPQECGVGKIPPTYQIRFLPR
To be noted: probe substrate bupropion. An excerpt:
(§1) The inhibition of cytochrome P450 (CYP) isoforms and a range of cellular transporters (except multidrug and toxin extrusion [MATE] proteins), as well as the induction of CYP isoforms were investigated using previously described methods.

Data set [2] concerns the target CYP 2C9 (Homo sapiens, UniProt P11712). To be noted: probe substrate diclofenac.
Source text: as §1

The target in data set [3] is T2, CYP 1A2 (Homo sapiens, UniProt P05177).
T2 sequence (P05177 1-516): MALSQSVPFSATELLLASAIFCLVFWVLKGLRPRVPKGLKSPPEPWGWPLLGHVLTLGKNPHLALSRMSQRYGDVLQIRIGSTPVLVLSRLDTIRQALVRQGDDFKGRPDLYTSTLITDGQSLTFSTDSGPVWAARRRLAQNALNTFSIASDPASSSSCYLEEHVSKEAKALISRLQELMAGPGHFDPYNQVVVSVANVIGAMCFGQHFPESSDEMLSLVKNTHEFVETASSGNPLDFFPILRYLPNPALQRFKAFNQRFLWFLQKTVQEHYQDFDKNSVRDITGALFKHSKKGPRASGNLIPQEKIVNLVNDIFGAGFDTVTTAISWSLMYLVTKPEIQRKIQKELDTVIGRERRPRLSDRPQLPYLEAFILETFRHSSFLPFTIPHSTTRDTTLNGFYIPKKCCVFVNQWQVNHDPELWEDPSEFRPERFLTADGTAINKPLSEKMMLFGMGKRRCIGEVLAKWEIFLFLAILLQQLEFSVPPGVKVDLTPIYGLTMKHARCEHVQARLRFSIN
To be noted: probe substrate phenacetin.
Source text: as §1

The target in data set [4] is T3, CYP 2A6 (Homo sapiens, UniProt P11509).
T3 sequence (P11509 1-494): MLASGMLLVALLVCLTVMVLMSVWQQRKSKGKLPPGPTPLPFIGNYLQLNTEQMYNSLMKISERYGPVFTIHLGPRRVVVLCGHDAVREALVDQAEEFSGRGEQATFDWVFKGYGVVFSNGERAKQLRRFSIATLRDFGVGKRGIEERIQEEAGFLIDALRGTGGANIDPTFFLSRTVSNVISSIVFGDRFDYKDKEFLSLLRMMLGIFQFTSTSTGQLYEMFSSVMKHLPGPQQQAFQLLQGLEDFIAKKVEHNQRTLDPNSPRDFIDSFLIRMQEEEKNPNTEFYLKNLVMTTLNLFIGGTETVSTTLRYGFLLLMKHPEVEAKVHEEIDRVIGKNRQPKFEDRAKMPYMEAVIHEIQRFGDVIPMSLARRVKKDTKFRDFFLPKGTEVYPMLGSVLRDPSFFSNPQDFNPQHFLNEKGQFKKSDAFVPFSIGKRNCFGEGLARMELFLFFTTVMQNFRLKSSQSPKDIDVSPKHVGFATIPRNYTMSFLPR
To be noted: coincubation, probe substrate coumarin; read-out: Co- IC50.
Source text: as §1

For data set [5], the target named is T4, CYP 2C8 (Homo sapiens, UniProt P10632).
T4 sequence (P10632 1-490): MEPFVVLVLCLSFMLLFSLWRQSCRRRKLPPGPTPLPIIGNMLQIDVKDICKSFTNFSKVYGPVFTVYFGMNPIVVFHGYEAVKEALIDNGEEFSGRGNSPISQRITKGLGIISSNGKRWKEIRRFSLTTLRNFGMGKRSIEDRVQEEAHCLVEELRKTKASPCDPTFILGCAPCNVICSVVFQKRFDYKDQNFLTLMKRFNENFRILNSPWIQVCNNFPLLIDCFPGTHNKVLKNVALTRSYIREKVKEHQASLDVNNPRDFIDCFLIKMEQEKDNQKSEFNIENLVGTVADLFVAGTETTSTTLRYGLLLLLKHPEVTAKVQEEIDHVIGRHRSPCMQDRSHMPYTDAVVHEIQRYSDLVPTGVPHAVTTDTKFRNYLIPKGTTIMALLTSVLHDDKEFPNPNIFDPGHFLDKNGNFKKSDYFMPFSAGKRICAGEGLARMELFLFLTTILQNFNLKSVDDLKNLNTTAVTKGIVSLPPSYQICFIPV
To be noted: probe substrate amodiaquine.
Source text: as §1

Data set [6] concerns the target CYP 2E1 (Homo sapiens, UniProt P05181). As to conditions: coincubation, probe substrate chlorzoxazone; read-out: Co- IC50.
Source text: as §1

For data set [7], the target named is CYP 2D6 (Homo sapiens, UniProt P10635). To be noted: probe substrate dextromethorphan.
Sequence of CYP 2D6 (P10635 whole entry): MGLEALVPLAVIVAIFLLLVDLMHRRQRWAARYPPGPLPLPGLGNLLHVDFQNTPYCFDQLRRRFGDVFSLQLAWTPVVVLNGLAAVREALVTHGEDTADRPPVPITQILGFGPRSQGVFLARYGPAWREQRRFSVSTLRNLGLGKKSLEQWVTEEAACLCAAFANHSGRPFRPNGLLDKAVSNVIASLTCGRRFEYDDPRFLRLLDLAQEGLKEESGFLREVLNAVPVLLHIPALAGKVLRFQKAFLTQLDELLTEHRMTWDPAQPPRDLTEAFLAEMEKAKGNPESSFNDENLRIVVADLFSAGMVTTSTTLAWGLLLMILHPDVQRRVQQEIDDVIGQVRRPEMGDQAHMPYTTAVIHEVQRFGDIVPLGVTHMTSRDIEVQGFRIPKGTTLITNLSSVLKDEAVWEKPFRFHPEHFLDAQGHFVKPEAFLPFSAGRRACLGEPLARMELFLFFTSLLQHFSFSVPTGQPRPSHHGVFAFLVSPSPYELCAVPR
Source text: as §1

[8] abbreviates: 30-min preincubation, read-out: Pre- IC50 (+ NADPH).
Setting [9] is: coincubation, read-out: Co- IC50.

Sequence of CYP 2E1 (P05181 whole entry): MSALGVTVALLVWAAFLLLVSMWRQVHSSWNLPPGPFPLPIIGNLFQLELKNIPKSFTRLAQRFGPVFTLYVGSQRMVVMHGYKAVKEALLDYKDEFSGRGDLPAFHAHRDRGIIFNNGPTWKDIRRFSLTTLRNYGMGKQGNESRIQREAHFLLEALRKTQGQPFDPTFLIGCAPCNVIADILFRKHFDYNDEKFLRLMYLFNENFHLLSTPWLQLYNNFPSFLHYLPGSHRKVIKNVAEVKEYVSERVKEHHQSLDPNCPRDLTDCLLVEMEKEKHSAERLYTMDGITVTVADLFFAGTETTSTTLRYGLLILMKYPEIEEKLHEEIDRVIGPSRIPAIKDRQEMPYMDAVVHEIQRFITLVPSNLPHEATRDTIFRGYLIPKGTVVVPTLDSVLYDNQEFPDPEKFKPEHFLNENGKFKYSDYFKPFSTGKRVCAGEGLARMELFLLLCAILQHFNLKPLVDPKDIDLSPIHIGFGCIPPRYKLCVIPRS
Sequence of CYP 2C9 (P11712 whole entry): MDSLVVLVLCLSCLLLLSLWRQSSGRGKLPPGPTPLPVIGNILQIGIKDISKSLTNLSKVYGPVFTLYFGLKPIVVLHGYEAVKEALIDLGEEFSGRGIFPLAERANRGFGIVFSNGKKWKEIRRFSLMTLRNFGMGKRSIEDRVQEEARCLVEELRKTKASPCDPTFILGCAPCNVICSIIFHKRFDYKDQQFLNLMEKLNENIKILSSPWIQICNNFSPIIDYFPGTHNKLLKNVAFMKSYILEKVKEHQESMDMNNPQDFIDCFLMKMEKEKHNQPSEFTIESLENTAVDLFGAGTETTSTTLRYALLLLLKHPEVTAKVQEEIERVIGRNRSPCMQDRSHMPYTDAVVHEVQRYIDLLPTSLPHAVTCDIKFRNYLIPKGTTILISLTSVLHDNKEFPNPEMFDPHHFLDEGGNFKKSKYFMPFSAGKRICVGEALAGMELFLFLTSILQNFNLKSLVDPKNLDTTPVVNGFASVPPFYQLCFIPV

One may read the IC50 as the concentration needed to halve the response being measured. With `CC1CS(=O)(=O)CCN1n1cc(SCC(N)C(=O)O)ccc1=O` (stereo not drawn) [M-4], the IC50 in data set [1] (setting [8]), in data set [1] (setting [9]), in data set [2] (setting [8]), in data set [2] (setting [9]), in data set [3] (setting [8]) and in data set [3] (setting [9]) was above 20 µM throughout. Also, the IC50 in data set [4], in data set [5] (setting [8]), in data set [5] (setting [9]), in data set [6], in data set [7] (setting [8]) and in data set [7] (setting [9]) was above 20 µM in each case. The “TDI (time-dependent inhibition)” value in data set [1], in data set [2], in data set [3], in data set [5] and in data set [7] was “No” throughout.
Take `CC1CS(=O)(=O)CCN1N` (stereo not drawn) [M-6]: the IC50 in data set [1] (setting [8]), in data set [1] (setting [9]), in data set [2] (setting [8]), in data set [2] (setting [9]), in data set [3] (setting [8]) and in data set [3] (setting [9]) was above 100 µM in each case. In addition, the IC50 in data set [4], in data set [5] (setting [8]), in data set [5] (setting [9]), in data set [6], in data set [7] (setting [8]) and in data set [7] (setting [9]) was above 100 µM in each case. For the same compound, the “TDI (time-dependent inhibition)” value in data set [1], in data set [2], in data set [3], in data set [5] and in data set [7] was “No” in each case.
Regarding `CC1CS(=O)(=O)CCN1/N=C/c1ccc([N+](=O)[O-])o1` (stereo not drawn) [Nifurtimox, (E)-N-(3-methyl-1,1-dioxo-1,4-thiazinan-4-yl)-1-(5-nitrofuran-2-yl) methanimine, reference compound], the IC50 in data set [1] (setting [8]), in data set [1] (setting [9]), in data set [2] (setting [8]), in data set [2] (setting [9]), in data set [3] (setting [8]) and in data set [3] (setting [9]) was above 50 µM each time. Further, the IC50 in data set [4], in data set [5] (setting [8]), in data set [5] (setting [9]), in data set [6], in data set [7] (setting [8]) and in data set [7] (setting [9]) was above 50 µM throughout. Moreover, the “TDI (time-dependent inhibition)” value in data set [1], in data set [2], in data set [3], in data set [5] and in data set [7] was “No” each time.
